In PMC6560083, “A mechanism to prevent production of reactive oxygen species by Escherichia coli respiratory complex I” (Nature Communications, 2019):
Positions count from the first letter of the chain named. Numbers in names are those of the source.

How the values were obtained:
[1] = biological target: T1, NuoEF of Aquifex aeolicus complex I (Aquifex aeolicus, UniProt O66841); assay: X-ray crystal structure; assay type: binding; conditions: bound cofactor of NuoF, oxidized (6HL2) and dithionite-reduced (6HL4)
T1 construct: gene nuoF; electron input subcomplex, NuoE (18 kDa) and NuoF (44 kDa) heterodimer, C-terminal hexahistidine tag on NuoF, expressed in E. coli; with NADH-quinone oxidoreductase subunit E
T1 sequence (O66841 1-426): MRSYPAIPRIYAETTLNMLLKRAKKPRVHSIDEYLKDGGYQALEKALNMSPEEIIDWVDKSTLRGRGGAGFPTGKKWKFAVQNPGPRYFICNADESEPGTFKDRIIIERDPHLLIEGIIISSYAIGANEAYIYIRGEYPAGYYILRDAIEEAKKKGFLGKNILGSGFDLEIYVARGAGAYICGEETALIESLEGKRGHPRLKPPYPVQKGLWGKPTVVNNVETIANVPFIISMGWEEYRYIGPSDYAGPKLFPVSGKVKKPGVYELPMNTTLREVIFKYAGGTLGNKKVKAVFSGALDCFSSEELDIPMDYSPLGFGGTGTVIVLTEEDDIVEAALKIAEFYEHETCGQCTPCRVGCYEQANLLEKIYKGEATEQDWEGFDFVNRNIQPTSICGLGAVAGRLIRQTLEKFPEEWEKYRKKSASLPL
T1 sequence (O66842 1-160 partner): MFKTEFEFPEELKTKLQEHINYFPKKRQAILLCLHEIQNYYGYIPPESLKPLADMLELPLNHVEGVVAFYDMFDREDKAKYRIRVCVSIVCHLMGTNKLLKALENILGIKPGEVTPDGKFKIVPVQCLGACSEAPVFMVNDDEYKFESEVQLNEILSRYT

[2] = biological target: T1, NuoEF of Aquifex aeolicus complex I; assay: X-ray crystal structure, soaked crystals; assay type: binding
[3] = biological target: T2, NuoEF of Aquifex aeolicus complex I (Aquifex aeolicus, UniProt O66841, S96M); assay: X-ray crystal structure, soaked crystals; assay type: binding
T2 construct: gene nuoF; electron input subcomplex, NuoE (18 kDa) and NuoF (44 kDa) heterodimer, C-terminal hexahistidine tag on NuoF, expressed in E. coli; with NADH-quinone oxidoreductase subunit E

[4] = biological target: T3, NuoEF of Aquifex aeolicus complex I (Aquifex aeolicus, UniProt O66841); assay: X-ray crystal structure, soaked crystals; assay type: binding; conditions: oxidized; ADP moiety defined, nicotinamide ring and its ribose not seen
T3 construct: gene nuoF; electron input subcomplex, NuoE (18 kDa) and NuoF (44 kDa) heterodimer, C-terminal hexahistidine tag on NuoF, expressed in E. coli; with NADH-quinone oxidoreductase subunit E
Target sequence in this assay (O66842 whole entry G129D, form open, one chain of several): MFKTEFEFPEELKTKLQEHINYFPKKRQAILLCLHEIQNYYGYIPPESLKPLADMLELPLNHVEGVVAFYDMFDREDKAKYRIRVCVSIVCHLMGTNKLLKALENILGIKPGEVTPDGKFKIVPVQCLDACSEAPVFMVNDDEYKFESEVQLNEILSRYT

[5] = biological target: T3, NuoEF of Aquifex aeolicus complex I; assay: X-ray crystal structure, soaked crystals; assay type: binding; conditions: oxidized
Target sequence in this assay (O66842 whole entry G129S, form open, one chain of several, further chain): as the sequence (O66842 whole entry G129D, form open, one chain of several) above, with D129S counted along it

[6] = substrate: NC(=O)C1=CN([C@@H]2O[C@H](COP(=O)(O)OP(=O)(O)OC[C@H]3O[C@@H](n4cnc5c(N)ncnc54)[C@H](O)[C@@H]3O)[C@@H](O)[C@H]2O)C=CC1; assay: purified protein; assay type: biochemical, Escherichia coli; conditions: 50 mM MES/NaOH, 50 mM NaCl, pH 6.0, electron acceptor of the Km titration not clearly stated (decyl-ubiquinone or ferricyanide)
[7] = biological target: T4, Aquifex aeolicus NuoF variant S96M (Aquifex aeolicus, UniProt O66841 1-426, S96M^F); assay: crystal structure; NuoEF subcomplex crystallized at 20 °C by sitting drop vapor diffusion, 0.1 M Tris/HCl, 1.0 M sodium citrate, pH 6.9-7.1; air-oxidized, dithionite- or NADH-reduced, with and without soaked NAD+ or NADH; conditions: both partners purified
T4 construct: NuoF of Aquifex aeolicus complex I with S96 exchanged for methionine (the residue at the homologous position of E. coli NuoF); The His tag is told for the original NuoF; the variants were purified in the same way (Ni2+-IDA); also called S96M^F; NuoEF S96M^F; source: overproducing E. coli strain, purified together with NuoE (Source 15Q anion exchange, Ni2+-IDA, size exclusion)
T4 sequence (looked up): T1 sequence (O66841 1-426) with S96M

[8] = biological target: T5, Aquifex aeolicus complex I subunit NuoF (Aquifex aeolicus, UniProt O66841 1-426); assay: as above; conditions: both partners purified
T5 construct: NuoF, subunit of the NADH:ubiquinone oxidoreductase (complex I) of Aquifex aeolicus; 44 kDa; the model contains 418 amino acids, eight residues at the C-terminus and the following hexahistidine tag not defined; Co-produced and co-purified with NuoE as the subcomplex NuoEF; also called original NuoEF (subunit F); source: overproducing E. coli strain, purified together with NuoE (Source 15Q anion …)
T5 sequence (looked up): T1 sequence (O66841 1-426)

T2 sequence (O66841 whole entry S96M, one chain of several): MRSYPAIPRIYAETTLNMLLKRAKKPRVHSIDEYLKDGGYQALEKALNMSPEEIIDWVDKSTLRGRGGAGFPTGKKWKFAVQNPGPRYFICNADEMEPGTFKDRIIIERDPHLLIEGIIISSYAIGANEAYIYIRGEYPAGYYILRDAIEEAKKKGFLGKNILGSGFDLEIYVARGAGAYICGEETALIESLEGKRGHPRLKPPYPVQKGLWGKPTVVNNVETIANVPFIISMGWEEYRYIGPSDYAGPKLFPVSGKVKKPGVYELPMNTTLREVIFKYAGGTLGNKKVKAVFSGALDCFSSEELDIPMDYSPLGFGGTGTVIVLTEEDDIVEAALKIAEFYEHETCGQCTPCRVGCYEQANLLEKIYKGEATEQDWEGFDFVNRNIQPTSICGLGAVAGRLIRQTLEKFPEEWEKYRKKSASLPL

Cc1cc2nc3c(=O)[nH]c(=O)nc-3n(C[C@H](O)[C@H](O)[C@H](O)COP(=O)(O)O)c2cc1C [FMN]
X-ray crystal structure [1]: Subunit NuoF binds the FMN cofactor as well as cluster N3

NC(=O)C1=CN([C@@H]2O[C@H](COP(=O)(O)OP(=O)(O)OC[C@H]3O[C@@H](n4cnc5c(N)ncnc54)[C@H](O)[C@@H]3O)[C@@H](O)[C@H]2O)C=CC1 [NADH]
X-ray crystal structure, soaked crystals ([2]; NADH soak, reduced state, 1.8-1.9 Å, nicotinamide in tight position, 6HLA with dithionite plus NADH): crystals of NuoEF were soaked with NAD^+, with NADH and with NADH plus dithionite
X-ray crystal structure, soaked crystals ([3]; reduced): 6Q9K (variant S96M, reduced with NADH)

NC(=O)c1ccc[n+]([C@@H]2O[C@H](COP(=O)(O)OP(=O)(O)OC[C@H]3O[C@@H](n4cnc5c(N)ncnc54)[C@H](O)[C@@H]3O)[C@@H](O)[C@H]2O)c1 [NAD^+]
X-ray crystal structure, soaked crystals [4]: the oxidized G129D^E variant was soaked with NAD^+
X-ray crystal structure, soaked crystals [5]: 6HLJ (variant G129S, oxidized with NAD^+)
X-ray crystal structure, soaked crystals ([2]; oxidized state, 10 mM NAD+ soak, 2.0 Å, loose position, 6HLI: dithionite-reduced, near tight position): crystals of NuoEF were soaked with NAD^+, with NADH and with NADH plus dithionite
X-ray crystal structure, soaked crystals ([3]; oxidized, 3.22 Å): 6R7P (variant S96M, oxidized with NAD^+)

B1: E. coli complex I (Escherichia coli K-12) (protein)
chain: MKNIIRTPETHPLTWRLRDDKQPVWLDEYRSKNGYEGARKALTGLSPDEIVNQVKDAGLKGRGGAGFSTGLKWSLMPKDESMNIRYLLCNADEMEPGTYKDRLLMEQLPHLLVEGMLISAFALKAYRGYIFLRGEYIEAAVNLRRAIAEATEAGLLGKNIMGTGFDFELFVHTGAGRYICGEETALINSLEGRRANPRSKPPFPATSGAWGKPTCVNNVETLCNVPAILANGVEWYQNISKSKDAGTKLMGFSGRVKNPGLWELPFGTTAREILEDYAGGMRDGLKFKAWQPGGAGTDFLTEAHLDLPMEFESIGKAGSRLGTALAMAVDHEINMVSLVRNLEEFFARESCGWCTPCRDGLPWSVKILRALERGEGQPGDIETLEQLCRFLGPGKTFCAHAPGAVEPLQSAIKYFREEFEAGIKQPFSNTHLINGIQPNLLKERW
notes: with NADH-quinone oxidoreductase subunit E; NADH-quinone oxidoreductase subunit G; NADH-quinone oxidoreductase subunit B; NADH-quinone oxidoreductase subunit C/D; NADH-quinone oxidoreductase subunit I; NADH-quinone oxidoreductase subunit A; NADH-quinone oxidoreductase subunit H; NADH-quinone oxidoreductase subunit J; NADH-quinone oxidoreductase subunit K; NADH-quinone oxidoreductase subunit L; …
Km [6]: 13 ± 1 µM

B2: Aquifex aeolicus complex I subunit NuoE (natural protein)
chain: T1 sequence (O66842 1-160 partner)
notes: NuoE, subunit of the NADH:ubiquinone oxidoreductase (complex I) of Aquifex aeolicus; 18 kDa; the model comprises 154 amino acids, the first six N-terminal residues not defined (residues up to 160); holds the [2Fe-2S] cluster N1a; Co-produced and co-purified with His-tagged NuoF as the subcomplex NuoEF; also called original NuoEF (subunit E); source: overproducing E. coli strain, purified together …
binding result [7]: binds
binding result [8]: binds

B3: Aquifex aeolicus NuoE variant G129D (natural protein)
chain: T1 sequence (O66842 1-160 partner) with G129D
notes: NuoE of Aquifex aeolicus complex I with G129 exchanged for aspartate; also called G129D^E; Asp-variant of NuoEF; source: E. coli, purified together with NuoF (Source 15Q anion exchange, Ni2+-IDA, size exclusion)
binding result [8]: binds

B4: Aquifex aeolicus NuoE variant G129S (natural protein)
chain: T1 sequence (O66842 1-160 partner) with G129S
notes: NuoE of Aquifex aeolicus complex I with G129 exchanged for serine; also called G129S^E; Ser-variant of NuoEF; source: E. coli, purified together with NuoF (Source 15Q anion exchange, Ni2+-IDA, size exclusion)
binding result [8]: binds
